Measurements: patent publication US20250074946A1, “USE OF SE-DR AFFINITY PEPTIDE IN PREPARING DRUG FOR TREATING RHEUMATIC DISEASE” (HEBEI FITNESS BIOTECHNOLOGY CO., LTD., priority 2021, published 2025)
Where no end group is shown, it is not given here.

Assays:
PBMC = PBMC stimulation test, IL-6 in supernatant by ELISA; type: cell-based, human; details: PBMC 1×10^6 cell/ml, peptide 10 μg/ml, 5 days of culture
Summary of the method: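 Human PBMC isolated from blood by Ficoll density centrifugation, seeded at 1×10^6 cell/ml in 1640 complete medium with peptide at final 10 μg/ml. Cultured 5 days; IL-6 in supernatant measured by ELISA.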

[1] = system: immune system of healthy monkeys; assay: Immune indicators of cynomolgus monkeys after one month of administration (Example 5); type: in vivo, cynomolgus monkey; details: once a day for 4 weeks, end of administration
Description: Cynomolgus monkeys were used to investigate the effects of the SE-DR affinity peptide on the immune indicators of cynomolgus monkeys after continuous administration for one month. […] At the end of administration, the immune indicators, including the serum anti-FNS007 antibodies, the immunoglobulins of different serotypes, the serum complement, the peripheral blood T lymphocyte and the serum cytokines, were observed.

Which “IL-6 levels in the supernatant” value (PBMC) does the source give for FKGEQAGAGE [APL2] here?
Its value is 2.3 ng/mL.

And the CD3% [1]?
Its CD3% is 63.37 ± 16.35%.

What about the CD4% [1] of the same sequence?
Its CD4% is 27.33 ± 6.66%.

What about the CD8% [1] of the same sequence?
Its CD8% is 21.74 ± 4.37%.

What about the IFN-γ [1] of the same sequence?
The IFN-γ was 5.09 ± 0.52 pg/mL.

And the IL-2 [1]?
Its IL-2 is 4.62 ± 0.86 pg/mL.

What about the IL-4 [1] of the same sequence?
Its IL-4 is 2.12 ± 0.42 pg/mL.

And the TNF-α [1]?
The TNF-α was 2.42 ± 0.51 pg/mL.
